Patent US9976141B2, “Compositions and methods for inhibiting gene expression of Hif2alpha” (Arrowhead Madison Inc., priority 2015, dated 2018)
Strand notation (5' to 3'): a small letter for the sugar, then the base; units joined by * are phosphorothioate-linked, units joined directly phosphodiester-linked; [ ] holds rarer units or linkages, { } end groups; capitals alone tell only the bases. d = 2'-deoxy (DNA); m = 2'-O-methyl; f = 2'-fluoro

Test system: human EPAS1 (Hif2α) cDNA in psiCHECK2 (Renilla luciferase/EPAS1 fusion mRNA) in Hep3B cells
Assay: Efficacy screen of Hif2α RNAi triggers in vitro, dual-luciferase reporter assay (1 nM and 0.1 nM)
Assay type: cell-based
Conditions: Hep3B cells co-transfected with EPAS1-psiCHECK2, Renilla luciferase normalized to firefly luciferase
Procedure, shortened: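 Knockdown read by dual-luciferase assay: Renilla signal from the Renilla/EPAS1 fusion transcript divided by firefly luciferase expressed from the same plasmid. Triggers (modified canonical siRNAs, 1 nM or 0.1 nM) were co-transfected with 25 ng reporter plasmid per well into human hepatocellular carcinoma Hep3B cells.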

Row | Substance | Relative Rluc-Hif2α (0.1 nM RNAi trigger) | Relative Rluc-Hif2α (1 nM RNAi trigger)
1 | 2285 (sense fCmAfUmCfUmAfCmAfAmCfCmCfUmCfGmCfAmAfAdT; antisense dTfUmUfGmCfGmAfGmGfGmUfUmGfUmAfGmAfUmGdT*dT; siRNA) [compound 2285] | 1.109 ± 0.247 | 0.723 ± 0.088
2 | 2286 (sense fAmUfCmUfAmCfAmAfCmCfCmUfCmGfCmAfAmCfAdT; antisense dTfGmUfUmGfCmGfAmGfGmGfUmUfGmUfAmGfAmUdT*dT; siRNA) [compound 2286] | 1.291 ± 0.367 | 0.878 ± 0.078
3 | 2287 (sense fCmUfAmCfAmAfCmCfCmUfCmGfCmAfAmCfCmUfAdT; antisense dTfAmGfGmUfUmGfCmGfAmGfGmGfUmUfGmUfAmGdT*dT; siRNA) [compound 2287] | 0.871 ± 0.102 | 0.751 ± 0.011
4 | 2288 (sense fUmAfCmAfAmCfCmCfUmCfGmCfAmAfCmCfUmGfAdT; antisense dTfCmAfGmGfUmUfGmCfGmAfGmGfGmUfUmGfUmAdT*dT; siRNA) [compound 2288] | 0.943 ± 0.029 | 0.932 ± 0.118
5 | 2289 (sense fUmUfUmGfAmUfAmGfCmAfGmUfGmGfCmAfAmGfAdT; antisense dTfCmUfUmGfCmCfAmCfUmGfCmUfAmUfCmAfAmAdT*dT; siRNA) [compound 2289] | 0.992 ± 0.153 | 1.039 ± 0.146
6 | 2290 (sense fAmGfUmAfAmCfUmUfCmCfUmAfUmUfCmAfCmCfAdT; antisense dTfGmGfUmGfAmAfUmAfGmGfAmAfGmUfUmAfCmUdT*dT; siRNA) [compound 2290] | 0.698 ± 0.155 | 0.353 ± 0.036
7 | 2291 (sense fUmCfGmGfGmAfAmUfCmAfGmAfAmCfUmUfCmGfAdT; antisense dTfCmGfAmAfGmUfUmCfUmGfAmUfUmCfCmCfGmAdT*dT; siRNA) [compound 2291] | 0.911 ± 0.092 | 0.434 ± 0.046
8 | 2292 (sense fCmUfGmCfUmCfCmAfCmGfCmCfCmAfAmUfAmGfAdT; antisense dTfCmUfAmUfUmGfGmGfCmGfUmGfGmAfGmCfAmGdT*dT; siRNA) [compound 2292] | 1.135 ± 0.048 | 0.832 ± 0.000
9 | 2293 (sense fUmGfCmUfCmCfAmCfGmCfCmCfAmAfUmAfGmCfAdT; antisense dTfGmCfUmAfUmUfGmGfGmCfGmUfGmGfAmGfCmAdT*dT; siRNA) [compound 2293] | 1.010 ± 0.045 | 0.925 ± 0.126
10 | 2294 (sense fGmCfUmCfCmAfCmGfCmCfCmAfAmUfAmGfCmCfAdT; antisense dTfGmGfCmUfAmUfUmGfGmGfCmGfUmGfGmAfGmCdT*dT; siRNA) [compound 2294] | 0.743 ± 0.100 | 0.546 ± 0.033
11 | 2295 (sense fAmCfGmCfCmCfAmAfUmAfGmCfCmCfUmGfAmAfAdT; antisense dTfUmUfCmAfGmGfGmCfUmAfUmUfGmGfGmCfGmUdT*dT; siRNA) [compound 2295] | 1.047 ± 0.184 | 0.863 ± 0.122
12 | 2296 (sense fCmAfUmCfUmUfUmGfGmAfUmAfAmCfGmAfCmCfAdT; antisense dTfGmGfUmCfGmUfUmAfUmCfCmAfAmAfGmAfUmGdT*dT; siRNA) [compound 2296] | 0.411 ± 0.079 | 0.213 ± 0.028
13 | 2297 (sense fCmAfAmUfGmCfAmGfUmAfCmCfCmAfGmAfCmGfAdT; antisense dTfCmGfUmCfUmGfGmGfUmAfCmUfGmCfAmUfUmGdT*dT; siRNA) [compound 2297] | 0.704 ± 0.083 | 0.643 ± 0.028
14 | 2298 (sense fAmUfGmCfAmGfUmAfCmCfCmAfGmAfCmGfGmAfAdT; antisense dTfUmCfCmGfUmCfUmGfGmGfUmAfCmUfGmCfAmUdT*dT; siRNA) [compound 2298] | 0.729 ± 0.092 | 0.695 ± 0.037
15 | 2299 (sense fAmGfUmAfCmCfCmAfGmAfCmGfGmAfUmUfUmCfAdT; antisense dTfGmAfAmAfUmCfCmGfUmCfUmGfGmGfUmAfCmUdT*dT; siRNA) [compound 2299] | 0.907 ± 0.171 | 0.827 ± 0.067
16 | 2300 (sense fCmUfGmUfAmGfCmCfCmCfGmCfAmCfAmGfUmCfAdT; antisense dTfGmAfCmUfGmUfGmCfGmGfGmGfCmUfAmCfAmGdT*dT; siRNA) [compound 2300] | 1.090 ± 0.106 | 0.786 ± 0.181
17 | 2301 (sense fAmUfCmUfUmCfUmUfUmGfAmUfGmCfCmGfGmAfAdT; antisense dTfUmCfCmGfGmCfAmUfCmAfAmAfGmAfAmGfAmUdT*dT; siRNA) [compound 2301] | 0.558 ± 0.034 | 0.423 ± 0.102
18 | 2302 (sense fCmUfUmUfGmAfUmGfCmCfGmGfAmAfGmCfAmAfAdT; antisense dTfUmUfGmCfUmUfCmCfGmGfCmAfUmCfAmAfAmGdT*dT; siRNA) [compound 2302] | 0.414 ± 0.019 | 0.147 ± 0.028

Row | Substance | Relative Rluc-Hif2α (0.1 nM RNAi trigger) | Relative Rluc-Hif2α (1 nM RNAi trigger)
19 | 2303 (sense fGmAfUmGfCmCfGmGfAmAfGmCfAmAfAmGfCmAfAdT; antisense dTfUmGfCmUfUmUfGmCfUmUfCmCfGmGfCmAfUmCdT*dT; siRNA) [compound 2303] | 0.414 ± 0.002 | 0.294 ± 0.034
20 | 2304 (sense fAmUfGmCfCmGfGmAfAmGfCmAfAmAfGmCfAmUfAdT; antisense dTfAmUfGmCfUmUfUmGfCmUfUmCfCmGfGmCfAmUdT*dT; siRNA) [compound 2304] | 0.528 ± 0.116 | 0.302 ± 0.025
21 | 2305 (sense fGmCfCmGfGmAfAmGfCmAfAmAfGmCfAmUfCmCfAdT; antisense dTfGmGfAmUfGmCfUmUfUmGfCmUfUmCfCmGfGmCdT*dT; siRNA) [compound 2305] | 0.961 ± 0.120 | 0.992 ± 0.217
22 | 2306 (sense fCmCfCmCfCmAfGmAfUmCfCmAfCmCfAmUfUmAfAdT; antisense dTfUmAfAmUfGmGfUmGfGmAfUmCfUmGfGmGfGmGdT*dT; siRNA) [compound 2306] | 0.596 ± 0.038 | 0.613 ± 0.031
23 | 2307 (sense fAmGfAmUfCmCfAmCfCmAfUmUfAmCfAmUfUmUfAdT; antisense dTfAmAfAmUfGmUfAmAfUmGfGmUfGmGfAmUfCmUdT*dT; siRNA) [compound 2307] | 0.800 ± 0.248 | 0.702 ± 0.142
24 | 2308 (sense fAmUfUmUfUmGfGmGfCmCfCmAfCmAfAmAfGmUfAdT; antisense dTfAmCfUmUfUmGfUmGfGmGfCmCfCmAfAmAfAmUdT*dT; siRNA) [compound 2308] | 0.799 ± 0.084 | 0.998 ± 0.059
25 | 2309 (sense fUmUfUmUfGmGfGmCfCmCfAmCfAmAfAmGfUmGfAdT; antisense dTfCmAfCmUfUmUfGmUfGmGfGmCfCmCfAmAfAmAdT*dT; siRNA) [compound 2309] | 0.823 ± 0.096 | 1.081 ± 0.135
26 | 2310 (sense fUmUfUmGfGmGfCmCfCmAfCmAfAmAfGmUfGmGfAdT; antisense dTfCmCfAmCfUmUfUmGfUmGfGmGfCmCfCmAfAmAdT*dT; siRNA) [compound 2310] | 0.785 ± 0.122 | 0.923 ± 0.101
27 | 2311 (sense fCmCfAmCfAmAfAmGfUmGfGmGfCmCfGmUfCmGfAdT; antisense dTfCmGfAmCfGmGfCmCfCmAfCmUfUmUfGmUfGmGdT*dT; siRNA) [compound 2311] | 0.888 ± 0.051 | 0.841 ± 0.130
28 | 2312 (sense fCmAfCmAfAmAfGmUfGmGfGmCfCmGfUmCfGmGfAdT; antisense dTfCmCfGmAfCmGfGmCfCmCfAmCfUmUfUmGfUmGdT*dT; siRNA) [compound 2312] | 0.899 ± 0.124 | 0.725 ± 0.173
29 | 2313 (sense fAmGfUmGfGmGfCmCfGmUfCmGfGmGfGmAfUmCfAdT; antisense dTfGmAfUmCfCmCfCmGfAmCfGmGfCmCfCmAfCmUdT*dT; siRNA) [compound 2313] | 0.853 ± 0.133 | 0.886 ± 0.243
30 | 2314 (sense fAmAfAmGfGmGfUmUfUmUfGmGfGmGfCmUfCmGfAdT; antisense dTfCmGfAmGfCmCfCmCfAmAfAmAfCmCfCmUfUmUdT*dT; siRNA) [compound 2314] | 0.692 ± 0.141 | 0.920 ± 0.150
31 | 2315 (sense fGmGfCmUfCmGfAmGfGmCfCmCfAmGfAmCfGmUfAdT; antisense dTfAmCfGmUfCmUfGmGfGmCfCmUfCmGfAmGfCmCdT*dT; siRNA) [compound 2315] | 0.781 ± 0.206 | 0.876 ± 0.099
32 | 2316 (sense fGmCfUmCfGmAfGmGfCmCfCmAfGmAfCmGfUmGfAdT; antisense dTfCmAfCmGfUmCfUmGfGmGfCmCfUmCfGmAfGmCdT*dT; siRNA) [compound 2316] | 0.797 ± 0.211 | 0.579 ± 0.055
33 | 2317 (sense fCmUfCmGfAmGfGmCfCmCfAmGfAmCfGmUfGmCfAdT; antisense dTfGmCfAmCfGmUfCmUfGmGfGmCfCmUfCmGfAmGdT*dT; siRNA) [compound 2317] | 0.842 ± 0.239 | 0.843 ± 0.157
34 | 2318 (sense fGmGfUmAfGmCfCmCfUmCfUmCfCmAfAmCfAmAfAdT; antisense dTfUmUfGmUfUmGfGmAfGmAfGmGfGmCfUmAfCmCdT*dT; siRNA) [compound 2318] | 0.885 ± 0.370 | 0.780 ± 0.103
35 | 2319 (sense fCmUfUmUfGmAfUmGfCmCfGmGfAmCfAmAfGmCfAdT; antisense dTfGmCfUmUfGmUfCmCfGmGfCmAfUmCfAmAfAmGdT*dT; siRNA) [compound 2319] | 0.454 ± 0.101 | 0.234 ± 0.055
